From ChEMBL document CHEMBL4396872, “Pharmacokinetics-Driven Optimization of 4(3 H)-Pyrimidinones as Phosphodiesterase Type 5 Inhibitors Leading to TPN171, a Clinical Candidate for the Treatment of Pulmonary Arterial Hypertension” (J Med Chem, 2019) come the findings set out here.

The target of data set [1] is cGMP-specific 3',5'-cyclic phosphodiesterase (Homo sapiens, UniProt O76074). The data set can be described thus: Inhibition of N-terminal GST-tagged human PDE5A1 expressed in baculovirus infected sf9 cells using [3H]cGMP as substrate measured after 30 mins by scintillation proximity assay.
A further data set is filed under the species Homo sapiens. In words: Selectivity ratio of IC50 for N-terminal GST-tagged human PDE6C to IC50 for N-terminal GST-tagged human PDE5A1.
Data set [2] can be described thus: Tmax in Sprague-Dawley rat at 1 mg/kg, po measured up to 24 hrs by HPLC analysis. The data set is classed as ADME, organism-based. The following applies: in vivo.
The nature of data set [3]: Cmax in Sprague-Dawley rat at 1 mg/kg, po measured up to 24 hrs by HPLC analysis. Set-up: dose 1 mg/kg, route oral. The class given is ADME, organism-based. Particulars: in vivo.
Data set [4] can be described thus: Half-life in Sprague-Dawley rat at 4 mg/kg, iv measured up to 24 hrs by HPLC analysis. The class given is ADME, organism-based. The following applies: in vivo.
Data set [5] is described as follows: Half-life in Sprague-Dawley rat at 1 mg/kg, po measured up to 24 hrs by HPLC analysis. The following applies: in vivo. The class given is ADME, organism-based.
The nature of data set [6]: Clearance in Sprague-Dawley rat at 4 mg/kg, iv measured up to 24 hrs by HPLC analysis. Particulars: in vivo. The data set is classed as ADME, organism-based.
A short description of data set [7]: Volume of distribution at steady state in Sprague-Dawley rat at 4 mg/kg, iv measured up to 24 hrs by HPLC analysis. The class given is ADME, organism-based. Particulars: in vivo, read-out: Vdss.
Data set [8] can be described thus: Oral bioavailability in Sprague-Dawley rat at 1 mg/kg measured up to 24 hrs by HPLC analysis. Particulars: in vivo. The data set is classed as ADME, organism-based.
Data set [9] relates to Rattus norvegicus. The data set can be described thus: Antihypertensive activity in spontaneously hypertensive rat assessed as reduction in mean arterial pressure at 20 mg/kg administered via single gavage and measured at 2 hrs. The data set is classed as functional, organism-based.
Data set [10] deals with Rattus norvegicus. In words: Antihypertensive activity in spontaneously hypertensive rat assessed as reduction in mean arterial pressure at 20 mg/kg administered via single gavage and measured at 4 hrs. The data set is classed as functional, organism-based.
Data set [11] relates to Rattus norvegicus. In words: Antihypertensive activity in spontaneously hypertensive rat assessed as reduction in mean arterial pressure at 20 mg/kg administered via single gavage after 6 hrs. The class given is functional, organism-based.
Data set [12] concerns Rattus norvegicus. In words: […] activity in MCT-induced pulmonary arterial hypertension Sprague-Dawley rat model assessed as reduction in mean pulmonary artery pressure at 1 mg/kg administered once daily for 21 days starting from 21 days post-MCT challenge by right cardiac catheter method. The data set is classed as functional, organism-based.
The test system of data set [13] is Rattus norvegicus. In words: […] activity in MCT-induced pulmonary arterial hypertension Sprague-Dawley rat model assessed as reduction in mean pulmonary artery pressure at 25 mg/kg administered once daily for 21 days starting from 21 days post-MCT challenge by right cardiac catheter method. The class given is functional, organism-based.
For data set [14], the system named is Rattus norvegicus. The data set can be described thus: […] activity in MCT-induced pulmonary arterial hypertension Sprague-Dawley rat model assessed as reduction in mean pulmonary artery pressure at 100 mg/kg administered once daily for 21 days starting from 21 days post-MCT challenge by right cardiac catheter method. The class given is functional, organism-based.

Data set [15] can be described thus: Metabolic stability in human liver microsomes assessed as parent compound remaining at 1 uM in presence of NADPH after 30 mins by LC-MS/MS analysis. The class given is ADME, Microsome. Particulars: read-out: Stability. For orientation: Microsomes from liver hold many membrane-bound enzymes, among them those of drug oxidation.
Data set [16] has as its system Rattus norvegicus. The data set can be described thus: Antihypertensive activity in spontaneously hypertensive rat assessed as reduction in mean arterial pressure at 20 mg/kg administered via single gavage measured up to 24 hrs. The class given is functional, organism-based.
Another data set deals with Phosphodiesterase 1 (Homo sapiens, UniProt P54750+Q01064+Q14123). The data set can be described thus: Inhibition of N-terminal GST-tagged human PDE1 expressed in baculovirus infected sf9 cells using [3H]cAMP as substrate measured after 30 mins by scintillation proximity assay. For orientation: In a scintillation proximity assay essentially only radioactivity close to the scintillant gives light.

Data set [17] addresses cGMP-dependent 3',5'-cyclic phosphodiesterase (Homo sapiens, UniProt O00408). In words: Inhibition of human PDE2A1 expressed in baculovirus infected sf9 cells using [3H]cAMP as substrate measured after 30 mins by scintillation proximity assay.
Another data set has as its target Phosphodiesterase 3 (Homo sapiens, UniProt Q14432+Q13370). In words: Inhibition of N-terminal GST-tagged human PDE3 expressed in baculovirus infected sf9 cells using [3H]cAMP as substrate measured after 30 mins by scintillation proximity assay.
The target in the next data set is Phosphodiesterase 7 (Homo sapiens, UniProt Q13946+Q9NP56). The data set can be described thus: Inhibition of N-terminal GST-tagged human PDE7 expressed in baculovirus infected sf9 cells using [3H]cAMP as substrate measured after 30 mins by scintillation proximity assay.
Data set [18] concerns the target High affinity cAMP-specific and IBMX-insensitive 3',5'-cyclic phosphodiesterase 8A (Homo sapiens, UniProt O60658). In words: Inhibition of N-terminal GST-tagged full length human PDE8A1 expressed in baculovirus infected sf9 cells using [3H]cAMP as substrate measured after 30 mins by scintillation proximity assay.
In data set [19] the target is High affinity cGMP-specific 3',5'-cyclic phosphodiesterase 9A (Homo sapiens, UniProt O76083). In words: Inhibition of N-terminal GST-tagged full length human PDE9A2 expressed in baculovirus infected sf9 cells using [3H]cGMP as substrate measured after 30 mins by scintillation proximity assay.
Data set [20] has as its target cAMP and cAMP-inhibited cGMP 3',5'-cyclic phosphodiesterase 10A (Homo sapiens, UniProt Q9Y233). The data set can be described thus: Inhibition of N-terminal GST-tagged human PDE10A expressed in baculovirus infected sf9 cells using [3H]cAMP as substrate measured after 30 mins by scintillation proximity assay.
The nature of data set [21]: Clearance in iv dosed rat. The data set is classed as ADME, organism-based. Particulars: in vivo.
Data set [22] can be described thus: Volume of distribution at steady state in iv dosed rat. The class given is ADME, organism-based. The following applies: in vivo.

Molecules are shown by their SMILES. Active and inactive are the calls of the source.

Sequence of High affinity cGMP-specific 3',5'-cyclic phosphodiesterase 9A (O76083 whole entry): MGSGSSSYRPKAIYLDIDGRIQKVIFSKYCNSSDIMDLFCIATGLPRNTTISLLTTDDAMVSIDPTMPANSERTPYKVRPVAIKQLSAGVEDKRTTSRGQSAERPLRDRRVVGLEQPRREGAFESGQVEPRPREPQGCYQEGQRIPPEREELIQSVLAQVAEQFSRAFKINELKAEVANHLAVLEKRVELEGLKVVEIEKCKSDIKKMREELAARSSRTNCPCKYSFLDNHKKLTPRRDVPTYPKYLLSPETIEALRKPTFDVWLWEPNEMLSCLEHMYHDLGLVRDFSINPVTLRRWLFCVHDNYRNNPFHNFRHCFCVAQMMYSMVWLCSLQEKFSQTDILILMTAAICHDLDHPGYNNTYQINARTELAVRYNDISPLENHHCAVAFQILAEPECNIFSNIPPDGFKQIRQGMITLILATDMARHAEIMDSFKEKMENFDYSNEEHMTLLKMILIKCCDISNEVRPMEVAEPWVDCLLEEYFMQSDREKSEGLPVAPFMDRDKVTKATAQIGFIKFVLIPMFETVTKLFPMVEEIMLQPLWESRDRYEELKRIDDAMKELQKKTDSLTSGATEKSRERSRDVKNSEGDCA
Sequence of cAMP and cAMP-inhibited cGMP 3',5'-cyclic phosphodiesterase 10A (Q9Y233 whole entry): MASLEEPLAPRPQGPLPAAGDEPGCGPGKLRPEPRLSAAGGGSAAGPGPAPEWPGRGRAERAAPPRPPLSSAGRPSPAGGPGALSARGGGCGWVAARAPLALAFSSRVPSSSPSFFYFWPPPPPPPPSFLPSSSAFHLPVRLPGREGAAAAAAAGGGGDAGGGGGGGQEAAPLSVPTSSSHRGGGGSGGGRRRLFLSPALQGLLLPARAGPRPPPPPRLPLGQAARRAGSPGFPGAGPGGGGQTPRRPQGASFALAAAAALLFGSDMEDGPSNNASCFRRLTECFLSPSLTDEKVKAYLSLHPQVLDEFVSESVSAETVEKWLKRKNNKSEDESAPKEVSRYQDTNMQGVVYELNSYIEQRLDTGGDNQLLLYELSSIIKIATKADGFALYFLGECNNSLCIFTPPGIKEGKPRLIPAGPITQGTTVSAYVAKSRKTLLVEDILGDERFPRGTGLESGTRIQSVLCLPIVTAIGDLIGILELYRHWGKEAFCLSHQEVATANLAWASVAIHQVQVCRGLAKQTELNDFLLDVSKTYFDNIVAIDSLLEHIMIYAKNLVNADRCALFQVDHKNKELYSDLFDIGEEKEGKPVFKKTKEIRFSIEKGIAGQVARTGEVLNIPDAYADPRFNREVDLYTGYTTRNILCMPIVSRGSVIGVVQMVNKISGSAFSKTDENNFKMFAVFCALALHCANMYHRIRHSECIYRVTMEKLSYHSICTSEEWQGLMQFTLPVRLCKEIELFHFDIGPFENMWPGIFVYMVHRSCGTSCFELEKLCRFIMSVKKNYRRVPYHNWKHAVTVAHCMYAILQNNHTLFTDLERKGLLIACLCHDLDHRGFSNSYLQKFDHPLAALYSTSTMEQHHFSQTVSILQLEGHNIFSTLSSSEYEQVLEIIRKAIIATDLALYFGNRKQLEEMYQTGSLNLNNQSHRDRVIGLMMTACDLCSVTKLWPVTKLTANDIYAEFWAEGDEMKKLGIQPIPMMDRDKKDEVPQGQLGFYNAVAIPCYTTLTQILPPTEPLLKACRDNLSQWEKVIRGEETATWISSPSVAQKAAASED
Sequence of cGMP-dependent 3',5'-cyclic phosphodiesterase (O00408 whole entry): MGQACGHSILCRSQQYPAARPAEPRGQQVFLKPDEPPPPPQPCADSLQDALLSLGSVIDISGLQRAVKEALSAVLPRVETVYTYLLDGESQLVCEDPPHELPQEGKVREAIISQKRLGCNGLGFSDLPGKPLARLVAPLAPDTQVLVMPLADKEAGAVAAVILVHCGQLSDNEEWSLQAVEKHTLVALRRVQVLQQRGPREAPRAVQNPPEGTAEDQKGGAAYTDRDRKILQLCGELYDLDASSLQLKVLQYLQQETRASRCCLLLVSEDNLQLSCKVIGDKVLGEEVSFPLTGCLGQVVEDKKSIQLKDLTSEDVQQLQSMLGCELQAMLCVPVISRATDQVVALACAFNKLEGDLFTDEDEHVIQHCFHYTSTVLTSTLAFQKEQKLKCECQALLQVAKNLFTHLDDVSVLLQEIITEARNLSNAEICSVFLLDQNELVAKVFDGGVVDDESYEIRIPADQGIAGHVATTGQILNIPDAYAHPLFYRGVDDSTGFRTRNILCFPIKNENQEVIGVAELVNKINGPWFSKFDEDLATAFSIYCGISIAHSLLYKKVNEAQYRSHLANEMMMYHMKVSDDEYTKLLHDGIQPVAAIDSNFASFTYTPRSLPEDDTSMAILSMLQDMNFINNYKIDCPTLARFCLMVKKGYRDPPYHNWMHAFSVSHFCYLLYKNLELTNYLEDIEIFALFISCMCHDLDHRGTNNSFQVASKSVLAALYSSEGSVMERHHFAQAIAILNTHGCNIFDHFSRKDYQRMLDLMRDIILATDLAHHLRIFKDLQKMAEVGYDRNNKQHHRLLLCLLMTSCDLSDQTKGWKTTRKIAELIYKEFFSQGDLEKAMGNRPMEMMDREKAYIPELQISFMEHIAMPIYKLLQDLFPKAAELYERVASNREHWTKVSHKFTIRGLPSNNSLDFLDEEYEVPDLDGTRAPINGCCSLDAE
Sequence of High affinity cAMP-specific and IBMX-insensitive 3',5'-cyclic phosphodiesterase 8A (O60658 whole entry): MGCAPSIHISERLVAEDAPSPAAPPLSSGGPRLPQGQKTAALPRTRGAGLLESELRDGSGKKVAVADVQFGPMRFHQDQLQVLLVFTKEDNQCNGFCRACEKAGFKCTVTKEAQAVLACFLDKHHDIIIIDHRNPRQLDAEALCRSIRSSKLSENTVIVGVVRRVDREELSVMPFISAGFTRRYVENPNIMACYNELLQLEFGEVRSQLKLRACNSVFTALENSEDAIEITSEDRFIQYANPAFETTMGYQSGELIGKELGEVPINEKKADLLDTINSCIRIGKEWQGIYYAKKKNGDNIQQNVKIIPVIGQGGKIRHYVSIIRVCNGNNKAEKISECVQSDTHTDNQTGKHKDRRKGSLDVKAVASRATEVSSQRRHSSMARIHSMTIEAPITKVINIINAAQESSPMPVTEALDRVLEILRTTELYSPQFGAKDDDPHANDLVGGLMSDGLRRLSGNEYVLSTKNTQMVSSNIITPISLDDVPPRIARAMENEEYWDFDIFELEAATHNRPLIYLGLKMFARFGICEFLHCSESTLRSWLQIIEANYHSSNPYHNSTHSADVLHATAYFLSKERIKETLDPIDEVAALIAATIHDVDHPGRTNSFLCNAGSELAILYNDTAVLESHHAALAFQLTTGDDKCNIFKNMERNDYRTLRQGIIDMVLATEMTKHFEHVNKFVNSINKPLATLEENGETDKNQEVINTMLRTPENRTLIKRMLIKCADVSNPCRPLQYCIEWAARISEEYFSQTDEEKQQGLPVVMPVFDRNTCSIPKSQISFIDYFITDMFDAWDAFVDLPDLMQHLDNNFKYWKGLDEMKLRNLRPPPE

`CCCOc1ccc(NC(=O)[C@@H]2CCCN2C(C)=O)cc1-c1nc(CC)c(CC)c(=O)[nH]1` showed a half-maximal inhibitory concentration (IC50) in data set [1] of 0.54 nM. Also, in the data set listed under Homo sapiens, the Ratio IC50 turned out to be 10.
As to `CCCOc1ccc(NC(=O)C(N)=O)cc1-c1nc(CC)c(CC)c(=O)[nH]1`, the Ratio IC50 in the data set filed under Homo sapiens was determined as 22.
`CCCOc1ccc(NC(=O)C2CCN(C)CC2)cc1-c1nc(CC)c(CC)c(=O)[nH]1` had an IC50 in data set [1] of 0.79 nM. In the data set listed under Homo sapiens, the Ratio IC50 was 24.
In turn, `CCCOc1ccc(N)cc1-c1nc(CC)c(CC)c(=O)[nH]1` registered a half-inhibitory concentration (IC50) in [1] of 5.33 nM. Further, in the data set filed under Homo sapiens, the Ratio IC50 amounted to 10.
On to `CCCc1nn(C)c2c(=O)[nH]c(-c3cc(S(=O)(=O)N4CCN(C)CC4)ccc3OCC)nc12`, for which, in [2], the time of peak concentration (Tmax) is 1.6 h. The Cmax in data set [3] came to 76 ng/mL. Further, the half-life in data set [4] is 1.1 h; in [5], 0.65 h. Besides, the clearance in data set [6] was 30.5 mL/min/kg. The Vd in [7] amounted to 1.6 L/kg. Also, the bioavailability in data set [8] is 34%. For the same compound, the result in the data set on Rattus norvegicus [9], in the data set on Rattus norvegicus [12], in the data set with Rattus norvegicus [13] and with Rattus norvegicus [14] was Active. Moreover, the outcome with Rattus norvegicus [10] and with Rattus norvegicus [11] was inactive.
Take `CCCOc1ccc(NC(=O)N2CCCC2)cc1-c1nc(CC)c(CC)c(=O)[nH]1`: the Ratio IC50 in the data set filed under Homo sapiens is 11.
`CCCOc1ccc(S(=O)(=O)N2CCN(C)CC2)cc1-c1nc(CC)c(CC)c(=O)[nH]1`: the remaining at 0.5 h, 1 µM in data set [15] came out at 29%.
In data set [1], `CCCOc1ccc(NC(=O)CN2CCCCC2)cc1-c1nc(CC)c(CC)c(=O)[nH]1` returned an IC50 of 1.46 nM. Also, the Ratio IC50 in the data set listed under Homo sapiens is 9.
For the compound `CCCOc1ccc(S(=O)(=O)NCCC(=O)O)cc1-c1nc(CC)c(CC)c(=O)[nH]1`, in data set [1], the IC50 was 1.69 nM. Moreover, the result in the data set on Rattus norvegicus [16] was inactive. In addition, in the data set filed under Homo sapiens, the Ratio IC50 stood at 86. Moreover, in [15], the remaining at 0.5 h, 1 µM worked out at 100%.
Consider `CCCOc1ccc(NC(=O)CCCNC(C)=O)cc1-c1nc(CC)c(CC)c(=O)[nH]1`, for which, in the data set filed under Homo sapiens, the Ratio IC50 was determined as 7.
Take `CCCOc1ccc(S(=O)(=O)N(CCO)CCN2CCOCC2)cc1-c1nc(CC)c(CC)c(=O)[nH]1`: the Ratio IC50 in the data set filed under Homo sapiens is 10.
As to `CCCOc1ccc(NS(C)(=O)=O)cc1-c1nc(CC)c(CC)c(=O)[nH]1`, the Ratio IC50 in the data set listed under Homo sapiens worked out at 28. In addition, the remaining at 0.5 h, 1 µM in data set [15] was determined as 27%.
`CCCOc1ccc(NC(=O)C(=O)N2CCN(C)CC2)cc1-c1nc(CC)c(CC)c(=O)[nH]1`: in data set [1], the IC50 was determined as 1.55 nM. Besides, the Ratio IC50 in the data set filed under Homo sapiens is 17.
In the case of `CN1CC(=O)N2[C@H](c3ccc4c(c3)OCO4)c3[nH]c4ccccc4c3C[C@@H]2C1=O`, the IC50 (against Phosphodiesterase 1; in data set [17]; on Phosphodiesterase 3; at Phosphodiesterase 7; in data set [18]; in data set [19]) was more than 10000 nM each time. In data set [20], this compound showed an IC50 of more than 10000 nM. The CL in data set [21] came to 5.17 mL/min/kg. This compound displayed a distribution volume (Vdss) in data set [22] of 5.2 L/kg.
For the compound `COc1ccccc1Oc1c(NS(=O)(=O)c2ccc(C(C)(C)C)cc2)nc(-c2ncccn2)nc1OCCO`, the result in the data set on Rattus norvegicus [12], with Rattus norvegicus [13] and with Rattus norvegicus [14] was Active.
In the case of `CCCOc1ccc(NC(=O)CC)cc1-c1nc(CC)c(CC)c(=O)[nH]1`, the Ratio IC50 in the data set filed under Homo sapiens turned out to be 11.
`CCCOc1ccc(S(=O)(=O)N2CCC[C@H]2C(=O)O)cc1-c1nc(CC)c(CC)c(=O)[nH]1`: 2.02 nM corresponded to half-maximal inhibition in data set [1] (IC50). Besides, the Ratio IC50 in the data set listed under Homo sapiens worked out at 20.
With `CCCOc1ccc(NC(N)=O)cc1-c1nc(CC)c(CC)c(=O)[nH]1`, the Ratio IC50 in the data set filed under Homo sapiens is 17.

The IC50 is the concentration that gives 50% inhibition. Read a high IC50 as a need for much substance. Broadly, the Tmax is the time from dosing to the highest level. As usually defined, the Cmax is the peak of the concentration-time curve. The half-life is the time needed for the level to fall by half in the phase considered. A lower half-life goes with fast loss. One may read the clearance as the volume of plasma or blood freed of the substance per unit of time. Lower therefore signals a low capacity for elimination. A word on the bioavailability: it is dose-corrected exposure relative to a reference, in per cent. By Vdss is commonly meant the apparent volume that relates the amount in the body to the concentration in plasma or blood.
